Measured values reported in US20120322125A1, “CONTROL OF CONTAMINANT MICROORGANISMS IN FERMENTATION PROCESSES WITH SYNERGISTIC FORMULATIONS CONTAINING PEROXIDE COMPOUND AND QUATERNARY AMMONIUM COMPOUND” (E. I. DU PONT DE NEMOURS AND COMPANY, priority 2010, published 2012).

Columns and labels:
[1] = tested on: lactic acid bacteria (LAB) species (Lactobacillus brevis, Lactobacillus plantarum, Lactobacillus paracasei); assay: Viable count of lactic acid bacteria cocktail in treated molasses medium; assay type: cell-based; conditions: for Viable Population: LAB in molasses medium, 32° C.
Protocol: (§1) A fermentation broth was prepared by diluting 1 part molasses with 3 parts water as is commonly practiced in molasses-based fermentation processes. A cocktail of three lactic acid bacteria (LAB) species (Lactobacillus brevis, Lactobacillus plantarum, Lactobacillus paracasei) was concurrently prepared by growing an overnight culture of each bacteria in deMann-Rogosa-Sharpe (MRS) broth (available from Difco Laboratories, Inc., Sparks, Md.) at 32° C. in a shaking incubator, then combining the broth to make up a mixed culture. A separate overnight culture of Saccharomyces cerevisiae (inoculant yeast) was prepared by growing an overnight culture in Yeast Peptone Dextrose (YPD) broth (available from Difco Laboratories Inc., Sparks, Md.). A potion of the molasses medium was inoculated with the cocktail of LAB to result in approximately 1×10^6 colony forming units (CFU) per ml of medium. A separate portion was inoculated with the yeast to result in approximately 6×10^5 CFU/ml. Portions of the inoculated molasses medium were treated with hydrogen peroxide (HP), quaternary ammonium compound (didecyl dimethyl ammonium chloride) or combinations of the two as outlined below:
(§2) Treated samples were incubated at 32° C. in a shaking incubator, following which serial dilutions were made in phosphate buffered saline (PBS) before plating the dilutions on MRS agar and Potato Dextrose Agar (PDA) plates for viable count determination. The plates were incubated at 32° C. for 48 hrs.

[2] = tested on: Saccharomyces cerevisiae (inoculant yeast); assay: Viable count of inoculant yeast in treated molasses medium; assay type: cell-based; conditions: for Viable Population: S. cerevisiae in molasses medium, 32° C.
Protocol: as §1, §2

## OO [HP, hydrogen peroxide]
[1]; 75 ppm HP
  Viable Population: 4.5 × 10^5 CFU/ml
[1]; 100 ppm HP by itself
  reduction of the viable LAB population: about 1 log CFU/ml
[1]; 100 ppm HP
  Viable Population: 8.1 × 10^4 CFU/ml

## CCCCCCCCCC[N+](C)(C)CCCCCCCCCC.[Cl-] [QAC, didecyl dimethyl ammonium chloride]
[1]; 100 ppm QAC by itself
  reduction of the LAB population: did not reduce
[1]; 100 ppm QAC
  Viable Population: 1.19 × 10^6 CFU/ml
[1]; 150 ppm QAC
  Viable Population: 1.16 × 10^6 CFU/ml
[2]; 100 ppm QAC
  Viable Population: 5.0 × 10^5 CFU/ml
[2]; 150 ppm QAC
  Viable Population: 3.5 × 10^5 CFU/ml
[2]; similar concentrations of QAC and HP, alone or combined
  effects on the viability of the inoculant yeast: did not have any significant effects
